Data taken from ChEMBL document CHEMBL1201862, “PubChem BioAssay data set” (2004).
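All cell lines were grown in 96-well plates and treated with compound for 48 hours. At the GI50, growth is halved.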 Activity calls are given as the source filed them. Rule as the data show it: active = GI50 up to about 1.1 µM and inactive = higher.

What was measured:
Experiment in all cases: NCI anticancer screen, dose series, 48 h
[1] = system: HCC 2998
[2] = system: SNB-19
[3] = system: SK-MEL-2
[4] = system: UO-31
[5] = system: SF-268
[6] = system: SK-MEL-28
[7] = system: OVCAR-3
[8] = system: SW-620
[9] = system: HOP-62
[10] = system: Malme-3M
[11] = system: 786-0
[12] = system: IGROV-1
[13] = system: SK-OV-3
[14] = system: HCT-15
[15] = system: MOLT-4
[16] = system: HT-29
[17] = system: MCF7
[18] = system: MDA-MB-231

SMILES | GI50 [1] | GI50 [2] | GI50 [3] | GI50 [4] | GI50 [5] | GI50 [6] | GI50 [7] | GI50 [8] | GI50 [9] | GI50 [10] | GI50 [11] | GI50 [12] | GI50 [13] | GI50 [14] [µM] | GI50 [15] | GI50 [16] | GI50 [17] | GI50 [18]
N#CC1C(=O)NC(=O)C1=O (configuration not stated) | > 100 µM (inactive) | > 100 µM (inactive) | > 100 µM (inactive) | > 100 µM (inactive) | > 100 µM (inactive) | > 100 µM (inactive) | > 100 µM (inactive) | > 100 µM (inactive) | > 100 µM (inactive) | > 100 µM (inactive) | > 100 µM (inactive) | > 100 µM (inactive) | > 100 µM (inactive) | > 100 | > 100 µM (inactive) | > 100 µM (inactive) | – | –
CCCCOCn1c(=O)[nH]c(=O)c2ccccc21 | – | 14.9 µM (inactive) | 91.8 µM (inactive) | 13.1 µM (inactive) | – | > 100 µM (inactive) | > 100 µM (inactive) | > 100 µM (inactive) | – | – | > 100 µM (inactive) | 49 µM (inactive) | > 100 µM (inactive) | > 100 | > 100 µM (inactive) | 40.3 µM (inactive) | 68.9 µM (inactive) | 33.3 µM (inactive)
Cc1ccc(N2C3=C(CC4=C2CC(C)(C)CC4=O)C(=O)CC(C)(C)C3)cc1 | > 100 µM (inactive) | > 100 µM (inactive) | – | > 100 µM (inactive) | > 100 µM (inactive) | > 100 µM (inactive) | > 100 µM (inactive) | > 100 µM (inactive) | > 100 µM (inactive) | > 100 µM (inactive) | > 100 µM (inactive) | > 100 µM (inactive) | > 100 µM (inactive) | > 100 | > 100 µM (inactive) | > 100 µM (inactive) | > 100 µM (inactive) | > 100 µM (inactive)
CCc1cc(C)cc2[n+]1CC=C2.[O-][Cl+3]([O-])([O-])[O-] | 43.6 µM (inactive) | 28.6 µM (inactive) | 15.6 µM (inactive) | 16.9 µM (inactive) | 32.5 µM (inactive) | 27.2 µM (inactive) | – | 7.33 µM (inactive) | 18.7 µM (inactive) | 15.9 µM (inactive) | 27.5 µM (inactive) | – | – | – | – | 19.4 µM (inactive) | – | –
COc1cc(Br)cc2cc(-c3cn4c(n3)sc3ccccc34)c(=O)oc12 | – | 32.7 µM (inactive) | 22.3 µM (inactive) | 18.7 µM (inactive) | 20 µM (inactive) | – | 20 µM (inactive) | 20.8 µM (inactive) | 22.7 µM (inactive) | – | 25.1 µM (inactive) | 14.7 µM (inactive) | 30.1 µM (inactive) | 23.6 | 20.9 µM (inactive) | 29.5 µM (inactive) | 35.6 µM (inactive) | 21.2 µM (inactive)
O=c1cc(-c2ccc(O)cc2)oc2cc(O)cc(O)c12 [APIGENIN] | 23.9 µM (inactive) | 29.7 µM (inactive) | 29.9 µM (inactive) | 23.9 µM (inactive) | 27.5 µM (inactive) | 20.3 µM (inactive) | 24.2 µM (inactive) | – | 43.6 µM (inactive) | 33.9 µM (inactive) | 34.3 µM (inactive) | 28.6 µM (inactive) | 34.9 µM (inactive) | 28.1 | 23 µM (inactive) | – | – | –
OC[C@H]1O[C@@H](Oc2cc(O)cc(/C=C/c3ccc(O)cc3)c2)[C@H](O)[C@@H](O)[C@@H]1O [PICEID] | – | > 100 µM (inactive) | > 100 µM (inactive) | > 100 µM (inactive) | – | > 100 µM (inactive) | > 100 µM (inactive) | > 100 µM (inactive) | > 100 µM (inactive) | – | > 100 µM (inactive) | > 100 µM (inactive) | > 100 µM (inactive) | > 100 | > 100 µM (inactive) | > 100 µM (inactive) | > 100 µM (inactive) | > 100 µM (inactive)
